Measurements: publication PMC10755729, “A Multiplexing Activity-Based Protein-Profiling Platform for Dissection of a Native Bacterial Xyloglucan-Degrading System” (ACS Central Science, 2023)

Columns and labels:
CjXyl39A; Xyl39A = target: T1, CjXyl39A; Xyl39A (Cellvibrio japonicus, UniProt B3PD50); test: fluorogenic activity assay on 4MU glycosides; type: biochemical; conditions: recombinant enzyme
T1 construct: recombinant, produced in E. coli (native in the pull-down)
T1 sequence (B3PD50 24-521): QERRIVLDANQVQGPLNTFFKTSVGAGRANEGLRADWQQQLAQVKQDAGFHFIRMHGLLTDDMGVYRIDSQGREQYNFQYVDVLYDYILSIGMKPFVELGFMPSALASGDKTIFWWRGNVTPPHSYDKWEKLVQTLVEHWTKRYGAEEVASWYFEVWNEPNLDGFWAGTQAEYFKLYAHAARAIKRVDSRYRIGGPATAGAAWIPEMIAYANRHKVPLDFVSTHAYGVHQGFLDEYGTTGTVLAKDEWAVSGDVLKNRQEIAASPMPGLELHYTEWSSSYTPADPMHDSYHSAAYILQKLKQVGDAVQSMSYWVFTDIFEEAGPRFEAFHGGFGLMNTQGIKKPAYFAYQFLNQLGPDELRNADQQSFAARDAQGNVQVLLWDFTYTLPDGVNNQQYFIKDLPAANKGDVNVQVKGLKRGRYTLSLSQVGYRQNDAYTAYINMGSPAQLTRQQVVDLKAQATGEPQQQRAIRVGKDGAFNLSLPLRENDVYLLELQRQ

CjCel5B = target: T2, CjCel5B (Cellvibrio japonicus, UniProt B3PCS3); test: fluorogenic hydrolysis kinetics; type: biochemical; conditions: 4MU release
T2 construct: gene cel5B; recombinant, produced in E. coli; native protein has N-terminal catalytic domain, serine-rich linker and C-terminal domain; borders of construct only in supplement
T2 sequence (B3PCS3 38-570): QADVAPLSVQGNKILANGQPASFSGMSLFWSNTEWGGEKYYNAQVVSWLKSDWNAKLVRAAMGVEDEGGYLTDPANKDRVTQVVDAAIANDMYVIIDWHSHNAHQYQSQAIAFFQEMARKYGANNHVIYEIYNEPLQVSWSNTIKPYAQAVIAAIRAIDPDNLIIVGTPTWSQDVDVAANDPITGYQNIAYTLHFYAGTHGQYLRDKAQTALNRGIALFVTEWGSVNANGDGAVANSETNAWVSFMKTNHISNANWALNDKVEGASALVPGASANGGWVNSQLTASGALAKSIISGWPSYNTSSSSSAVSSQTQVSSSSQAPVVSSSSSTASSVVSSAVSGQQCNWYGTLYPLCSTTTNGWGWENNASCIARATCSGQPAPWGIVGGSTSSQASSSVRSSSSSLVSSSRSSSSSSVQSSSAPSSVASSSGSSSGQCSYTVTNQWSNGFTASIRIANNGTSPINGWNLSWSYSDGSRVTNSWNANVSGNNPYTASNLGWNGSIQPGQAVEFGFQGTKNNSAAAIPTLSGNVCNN

Structure (SMILES): Cc1cc(=O)oc2cc(O[C@@H]3OC[C@@H](O)[C@H](O)[C@H]3O)ccc12 [4-methylumbelliferyl (4MU) glycoside of β-D-xylose]
- activity (CjXyl39A; Xyl39A): showed specific recognition of β-D-xylose over other glycosides

Structure (SMILES): Cc1cc(=O)oc2cc(O[C@@H]3O[C@H](CO)[C@@H](O[C@@H]4O[C@H](CO[C@H]5OC[C@@H](O)[C@H](O)[C@H]5O)[C@@H](O[C@@H]5O[C@H](CO[C@H]6OC[C@@H](O)[C@H](O)[C@H]6O)[C@@H](O[C@@H]6O[C@H](CO[C@H]7OC[C@@H](O)[C@H](O)[C@H]7O)[C@@H](O)[C@H](O)[C@H]6O)[C@H](O)[C@H]5O)[C@H](O)[C@H]4O)[C@H](O)[C@H]3O)ccc12 [4MU-XXXG]
- hydrolysis kinetics (CjCel5B): Kinetics for the hydrolysis of 4MU-XXXG and commercially available 4MU-cellotetraose were measured
